The values below come from DBAASP.

The term MIC denotes the lowest concentration found to suppress growth. Low values mean inhibition by little substance, high ones a need for much substance.

Holding throughout (test): ≥ marks a high value that may be exact or a test limit, other limits are often not marked, values filed in µg/mL are converted to µM
Test [1] relates to Mycobacterium tuberculosis H37Rv.
The next test concerns Streptococcus agalactiae.
In test [2] the test system is Staphylococcus aureus ATCC 25923.
In test [3] the test system is Escherichia coli ATCC 25922.
The subject of test [4] is Enterococcus faecalis ATCC 29212.
Test [5] relates to Candida albicans ATCC 90028.
The subject of test [6] is Staphylococcus aureus NCTC 8325.
In test [7] the test system is Pseudomonas aeruginosa ATCC 27853.
Test [8] concerns Bacillus subtilis ATCC 6051.
For the next test, the system named is Streptococcus mutans.

Values after ≈ are worked out from the molar mass of the structure shown.

`CC[C@H](C)[C@H](NC(=O)[C@H](CCCCN)NC(=O)[C@@H](NC(=O)[C@H](Cc1ccccc1)NC(=O)[C@@H](NC(=O)[C@@H]1CCCN1C(=O)[C@H](CS)NC(=O)[C@H](C)N)[C@@H](C)CC)[C@@H](C)O)C(=O)N[C@@H](CCC(N)=O)C(=O)NCC(=O)N[C@H](C(=O)N[C@@H](CS)C(=O)N[C@@H](Cc1ccc(O)cc1)C(=O)N[C@@H](CCCN=C(N)N)C(=O)NCC(=O)O)[C@@H](C)O` [ACPIFTKIQGTCYRG]: the MIC in [1] came out at 12.1 µM (≈ 20 µg/mL).

On to `CC(C)C[C@H](NC(=O)[C@H](C)N)C(=O)N[C@@H](Cc1ccc(O)cc1)C(=O)N[C@@H](CCCCN)C(=O)N[C@@H](CCCCN)C(=O)N[C@@H](Cc1ccccc1)C(=O)N[C@@H](CCCCN)C(=O)N[C@@H](CCCCN)C(=O)N[C@@H](CCCCN)C(=O)N[C@@H](CC(C)C)C(=O)N[C@@H](CC(C)C)C(=O)N[C@@H](CCCCN)C(=O)N[C@@H](CO)C(=O)N[C@@H](CC(C)C)C(=O)N[C@@H](CCCCN)C(=O)N[C@@H](CCCN=C(N)N)C(=O)N[C@@H](CC(C)C)C(=O)NCC(=O)O` [ALYKKFKKKLLKSLKRLG], for which the MIC in the test with Streptococcus agalactiae is 4.3 µM (≈ 9.3 µg/mL); in test [2], 69.4 µM (≈ 150 µg/mL); in test [3] it was 8.7 µM (≈ 18.8 µg/mL); in [4], 8.7 µM (≈ 18.8 µg/mL).

`CC[C@H](C)[C@H](NC(=O)[C@H](CC(C)C)NC(=O)[C@H](CCCCN)NC(=O)[C@H](CCCCN)NC(=O)[C@@H](NC(=O)[C@H](C)NC(=O)[C@H](CCCCN)NC(=O)[C@@H](NC(=O)[C@H](C)NC(=O)[C@H](Cc1cnc[nH]1)NC(=O)[C@@H]1CCCN1C(=O)[C@@H](NC(=O)[C@H](CC(C)C)NC(=O)[C@@H]1CCCN1C(=O)CNC(=O)[C@@H](NC(=O)[C@H](Cc1ccc(O)cc1)NC(=O)[C@H](CCCCN)NC(=O)[C@H](CCSC)NC(=O)[C@H](Cc1ccccc1)NC(=O)CN)[C@@H](C)CC)[C@@H](C)CC)C(C)C)[C@@H](C)CC)C(N)=O` [GFMKYIGPLIPHAVKAIKKLI]: the results for the MIC in test [5], in test [3] and in [6] were 25 µM (≈ 58.4 µg/mL), 6.25 µM (≈ 14.6 µg/mL) and 3.13 µM (≈ 7.31 µg/mL), respectively.

Turning to `CC[C@H](C)[C@H](NC(=O)CNC(=O)[C@H](CCCCN)NC(=O)CNC(=O)[C@H](C)NC(=O)[C@H](Cc1ccccc1)NC(=O)[C@H](CCCCN)NC(=O)[C@H](CO)NC(=O)[C@H](Cc1ccccc1)NC(=O)[C@H](CC(C)C)NC(=O)CN)C(=O)N[C@@H](CCCCN)C(=O)N[C@@H](CC(N)=O)C(=O)N[C@@H](CC(C)C)C(=O)N[C@H](C(=O)N[C@@H](Cc1ccccc1)C(=O)N[C@@H](CCCCN)C(=O)NCC(=O)N[C@H](C(=O)N[C@@H](CCCCN)C(=O)N[C@@H](Cc1cnc[nH]1)C(=O)N[C@H](C(=O)NCC(=O)N[C@@H](CCCCN)C(=O)N[C@@H](CCC(=O)O)C(=O)N[C@H](C(=O)NCC(=O)N[C@@H](CCSC)C(=O)N[C@@H](CC(=O)O)C(=O)N[C@H](C(=O)N[C@H](C(=O)N[C@@H](CCCN=C(N)N)C(=O)N[C@H](C(=O)NCC(=O)N[C@H](C(=O)N[C@@H](CC(=O)O)C(=O)N[C@H](C(=O)N[C@@H](C)C(=O)NCC(=O)N[C@H]1CSSC[C@@H](C(=O)O)NC(=O)[C@H](CCC(=O)O)NC(=O)CNC(=O)[C@H](CCCCN)NC(=O)[C@H]([C@@H](C)CC)NC(=O)[C@H](CCCCN)NC1=O)C(C)C)[C@@H](C)CC)[C@@H](C)O)[C@@H](C)CC)C(C)C)C(C)C)[C@@H](C)CC)C(C)C)[C@@H](C)CC` [GLFSKFAGKGIKNLIFKGVKHIGKEVGMDVIRTGIDVAGCKIKGEC], the MIC is at least 50 µM in [5], 6 µM (≈ 29.2 µg/mL) in test [3] and 12.5 µM (≈ 60.8 µg/mL) in test [6].

For the compound `CC[C@H](C)[C@H](NC(=O)[C@H](Cc1c[nH]c2ccccc12)NC(=O)[C@H](Cc1ccccc1)NC(=O)[C@H](CC(C)C)NC(=O)CN)C(=O)N[C@H](C(=O)N[C@@H](CCCCN)C(=O)N[C@@H](CCCCN)C(=O)N[C@H](C(=O)N[C@H](C(=O)NCC(=O)N[C@@H](CCCCN)C(=O)N[C@@H](CC(C)C)C(=O)N[C@@H](CCCN=C(N)N)C(=O)O)[C@@H](C)CC)[C@@H](C)O)[C@@H](C)CC` [GLFWIIKKTIGKLR], the MIC is 4.78 µM (≈ 8 µg/mL) in test [7], 76.5 µM (≈ 128 µg/mL) in test [2], 9.56 µM (≈ 16 µg/mL) in test [8] and 9.56 µM (≈ 16 µg/mL) in test [3].

The compound `CC(C)C[C@H](NC(=O)[C@H](CC(C)C)NC(=O)[C@H](CCCCN)NC(=O)[C@H](CCCCN)NC(=O)[C@H](CC(C)C)NC(=O)[C@H](CCCCN)NC(=O)[C@H](CCCCN)NC(=O)[C@H](CC(C)C)NC(=O)[C@H](CC(C)C)NC(=O)[C@H](CCCCN)NC(=O)[C@H](CCCCN)NC(=O)[C@H](CC(C)C)NC(=O)[C@@H](N)CCCCN)C(=O)N[C@@H](CCCCN)C(=O)O` [KLKKLLKKLKKLLK] registered an MIC against Streptococcus mutans of 4.64 µM (≈ 8 µg/mL).

Compound `CC[C@H](C)[C@H](NC(=O)[C@H](CC(C)C)NC(=O)[C@@H](N)CCCN=C(N)N)C(=O)N[C@@H](CCCN=C(N)N)C(=O)N[C@H](C(=O)N[C@@H](CCC(=O)O)C(=O)N[C@@H](CCCN=C(N)N)C(=O)N[C@@H](CC(=O)O)C(=O)N[C@@H](CO)C(=O)N[C@H](C(=O)N[C@@H](CCC(=O)O)C(=O)N[C@@H](C)C(=O)N[C@@H](CC(C)C)C(=O)N[C@@H](CCSC)C(=O)N[C@@H](CCCN=C(N)N)C(=O)N1CCC[C@H]1C(=O)N[C@H](C(=O)NCC(=O)N[C@@H](CCCCN)C(=O)O)[C@@H](C)CC)C(C)C)C(C)C` [RLIRVERDSVEALMRPIGK] yielded an MIC in [1] of at least 89.3 µM.

In the test on Streptococcus mutans, `CC[C@H](C)[C@H](NC(=O)[C@H](CCC(N)=O)NC(=O)[C@H](CCCCN)NC(=O)[C@@H](NC(=O)[C@H](CCC(N)=O)NC(=O)[C@H](CC(N)=O)NC(=O)[C@H](CC(C)C)NC(=O)[C@@H](NC(=O)[C@@H](N)CCCN=C(N)N)C(C)C)C(C)C)C(=O)N[C@@H](CC(C)C)C(=O)N[C@@H](CCCCN)C(=O)O` [RVLNQVKQILK] had an MIC of at least 93.4 µM.

Compound `NC(=O)[C@H](Cc1ccccc1)NC(=O)[C@H](Cc1c[nH]c2ccccc12)NC(=O)[C@H](CCCN=C(N)N)NC(=O)[C@H](Cc1c[nH]c2ccccc12)NC(=O)[C@H](CCCN=C(N)N)NC(=O)[C@H](Cc1c[nH]c2ccccc12)NC(=O)[C@H](CCCN=C(N)N)NC(=O)[C@@H]1CCCN1C(=O)[C@H](CO)NC(=O)CNC(=O)[C@H](CO)NC(=O)[C@@H]1CCCN1C(=O)[C@H](Cc1ccccc1)NC(=O)[C@H](Cc1c[nH]c2ccccc12)NC(=O)[C@H](CCCN=C(N)N)NC(=O)[C@H](Cc1c[nH]c2ccccc12)NC(=O)[C@H](CCCN=C(N)N)NC(=O)[C@H](Cc1c[nH]c2ccccc12)NC(=O)[C@@H](N)CCCN=C(N)N` [RWRWRWFPSGSPRWRWRWF] came in with an MIC against Streptococcus mutans of 11.5 µM (≈ 32 µg/mL).

In the test with Streptococcus mutans, `NC(=O)[C@H](Cc1ccccc1)NC(=O)[C@H](Cc1c[nH]c2ccccc12)NC(=O)[C@H](CCCN=C(N)N)NC(=O)[C@H](Cc1c[nH]c2ccccc12)NC(=O)[C@H](CCCN=C(N)N)NC(=O)[C@H](Cc1c[nH]c2ccccc12)NC(=O)[C@H](CCCN=C(N)N)NC(=O)[C@H](Cc1ccccc1)NC(=O)[C@H](Cc1c[nH]c2ccccc12)NC(=O)[C@H](CCCN=C(N)N)NC(=O)[C@H](Cc1c[nH]c2ccccc12)NC(=O)[C@H](CCCN=C(N)N)NC(=O)[C@H](Cc1c[nH]c2ccccc12)NC(=O)[C@@H](N)CCCN=C(N)N` [RWRWRWFRWRWRWF] returned an MIC of 6.76 µM (≈ 16 µg/mL).

With `NCCCC[C@H](NC(=O)[C@H](CCC(=O)O)NC(=O)[C@H](CC(=O)O)NC(=O)[C@H](CCC(=O)O)NC(=O)[C@H](CC(=O)O)NC(=O)[C@H](CCC(=O)O)NC(=O)[C@H](CC(=O)O)NC(=O)[C@H](CCC(N)=O)NC(=O)[C@H](CCCN=C(N)N)NC(=O)[C@@H](N)CO)C(=O)N[C@@H](CCCN=C(N)N)C(=O)N[C@@H](CCCN=C(N)N)C(=O)N1CCC[C@H]1C(=O)N[C@@H](CCCN=C(N)N)C(=O)O` [SRQDEDEDEKRRPR], in test [8], the MIC was at least 1000 µM.
